Experiment: Biodistribution of the nano-emulsion of Example 1.1 in male mice (Tables 15 to 21)
Assay type: in vivo
Details: FVB male mouse
Experimental: In the following examples, the radioactivity was counted with the TRiCarb Counter (Ref: Packard, Liquid Scintillation Analyzers; Models 2200CA).
Fluobeam 700 (Fluoptics) is the apparatus with which the whole of the organs from the biodistribution were analyzed in fluorescence as well as the one with which the biodistribution kinetics of the nano-emulsions were established in vivo. This imaging system allows viewing of the fluorescence in spectral bands from 700 to 850 nm for a 650 nm excitation. The apparatus consists of an electric case containing the laser of class 3B, its power supply and an optical head containing the CCD camera. […]

CCCCCCCCCCCCCCCCO[C@H]1CC[C@@]2(C)C(=CC[C@H]3[C@@H]4CC[C@H]([C@H](C)CCCC(C)C)[C@@]4(C)CC[C@@H]32)C1 [[3H]CHE, cholesteryl hexadecylether]
tracer in Adrenal gland (2 h): 10.16 percentage of the dose injected per gram of tissue
tracer in Adrenal gland (4 h): 16.96 percentage of the dose injected per gram of tissue
tracer in Adrenal gland (6 h): 13.399 percentage of the dose injected per gram of tissue
tracer in Adrenal gland (16 h): 32.89 percentage of the dose injected per gram of tissue
tracer in Adrenal gland (24 h): 17.41 percentage of the dose injected per gram of tissue
tracer in Adrenal gland (48 h): 25.12 percentage of the dose injected per gram of tissue
tracer in Adrenal gland (72 h): 46.41 percentage of the dose injected per gram of tissue
tracer in Brain (2 h): 0.35 percentage of the dose injected per gram of tissue
tracer in Brain (4 h): 0.23 percentage of the dose injected per gram of tissue
tracer in Brain (6 h): 0.24 percentage of the dose injected per gram of tissue
tracer in Brain (16 h): 0.18 percentage of the dose injected per gram of tissue
tracer in Brain (24 h): 0.11 percentage of the dose injected per gram of tissue
tracer in Brain (48 h): 0.10 percentage of the dose injected per gram of tissue
tracer in Brain (72 h): 0.11 percentage of the dose injected per gram of tissue
tracer in Fat (2 h): 1.14 percentage of the dose injected per gram of tissue
tracer in Fat (4 h): 0.74 percentage of the dose injected per gram of tissue
tracer in Fat (6 h): 1.234 percentage of the dose injected per gram of tissue
tracer in Fat (16 h): 1.70 percentage of the dose injected per gram of tissue
tracer in Fat (24 h): 0.83 percentage of the dose injected per gram of tissue
tracer in Fat (48 h): 0.94 percentage of the dose injected per gram of tissue
tracer in Fat (72 h): 0.70 percentage of the dose injected per gram of tissue
tracer in Heart (2 h): 9.84 percentage of the dose injected per gram of tissue
tracer in Heart (4 h): 7.57 percentage of the dose injected per gram of tissue
tracer in Heart (6 h): 8.52 percentage of the dose injected per gram of tissue
tracer in Heart (16 h): 8.50 percentage of the dose injected per gram of tissue
tracer in Heart (24 h): 5.76 percentage of the dose injected per gram of tissue
tracer in Heart (48 h): 6.05 percentage of the dose injected per gram of tissue
tracer in Heart (72 h): 7.83 percentage of the dose injected per gram of tissue
tracer in Intestine (2 h): 2.44 percentage of the dose injected per gram of tissue
tracer in Intestine (4 h): 1.98 percentage of the dose injected per gram of tissue
tracer in Intestine (6 h): 2.549 percentage of the dose injected per gram of tissue
tracer in Intestine (16 h): 5.19 percentage of the dose injected per gram of tissue
tracer in Intestine (24 h): 3.41 percentage of the dose injected per gram of tissue
tracer in Intestine (48 h): 3.50 percentage of the dose injected per gram of tissue
tracer in Intestine (72 h): 3.47 percentage of the dose injected per gram of tissue
tracer in Kidney (2 h): 5.29 percentage of the dose injected per gram of tissue
tracer in Kidney (4 h): 3.14 percentage of the dose injected per gram of tissue
tracer in Kidney (6 h): 3.336 percentage of the dose injected per gram of tissue
tracer in Kidney (16 h): 2.40 percentage of the dose injected per gram of tissue
tracer in Kidney (24 h): 1.80 percentage of the dose injected per gram of tissue
tracer in Kidney (48 h): 1.77 percentage of the dose injected per gram of tissue
tracer in Kidney (72 h): 1.82 percentage of the dose injected per gram of tissue
tracer in Liver (2 h): 22.67 percentage of the dose injected per gram of tissue
tracer in Liver (4 h): 17.25 percentage of the dose injected per gram of tissue
tracer in Liver (6 h): 22.609 percentage of the dose injected per gram of tissue
tracer in Liver (16 h): 40.91 percentage of the dose injected per gram of tissue
tracer in Liver (24 h): 30.93 percentage of the dose injected per gram of tissue
tracer in Liver (48 h): 24.53 percentage of the dose injected per gram of tissue
tracer in Liver (72 h): 24.97 percentage of the dose injected per gram of tissue
tracer in Lung (2 h): 5.08 percentage of the dose injected per gram of tissue
tracer in Lung (4 h): 2.98 percentage of the dose injected per gram of tissue
tracer in Lung (6 h): 3.771 percentage of the dose injected per gram of tissue
tracer in Lung (16 h): 5.31 percentage of the dose injected per gram of tissue
tracer in Lung (24 h): 2.88 percentage of the dose injected per gram of tissue
tracer in Lung (48 h): 3.02 percentage of the dose injected per gram of tissue
tracer in Lung (72 h): 3.04 percentage of the dose injected per gram of tissue
tracer in Muscle (2 h): 0.99 percentage of the dose injected per gram of tissue
tracer in Muscle (4 h): 0.56 percentage of the dose injected per gram of tissue
tracer in Muscle (6 h): 0.77 percentage of the dose injected per gram of tissue
tracer in Muscle (16 h): 0.97 percentage of the dose injected per gram of tissue
tracer in Muscle (24 h): 0.38 percentage of the dose injected per gram of tissue
tracer in Muscle (48 h): 0.63 percentage of the dose injected per gram of tissue
tracer in Muscle (72 h): 0.49 percentage of the dose injected per gram of tissue
tracer in Ovary (Ovary, 24 h): 1.71 percentage of the dose injected per gram of tissue
tracer in Pancreas (2 h): 1.64 percentage of the dose injected per gram of tissue
tracer in Pancreas (4 h): 1.50 percentage of the dose injected per gram of tissue
tracer in Pancreas (6 h): 1.67 percentage of the dose injected per gram of tissue
tracer in Pancreas (16 h): 1.92 percentage of the dose injected per gram of tissue
tracer in Pancreas (24 h): 1.31 percentage of the dose injected per gram of tissue
tracer in Pancreas (48 h): 0.99 percentage of the dose injected per gram of tissue
tracer in Pancreas (72 h): 1.12 percentage of the dose injected per gram of tissue
tracer in Salivary gland (2 h): 1.53 percentage of the dose injected per gram of tissue
tracer in Salivary gland (4 h): 1.26 percentage of the dose injected per gram of tissue
tracer in Salivary gland (6 h): 2.10 percentage of the dose injected per gram of tissue
tracer in Salivary gland (16 h): 2.68 percentage of the dose injected per gram of tissue
tracer in Salivary gland (24 h): 1.57 percentage of the dose injected per gram of tissue
tracer in Salivary gland (48 h): 2.07 percentage of the dose injected per gram of tissue
tracer in Salivary gland (72 h): 2.36 percentage of the dose injected per gram of tissue
tracer in Seminal gland (4 h): 0.50 percentage of the dose injected per gram of tissue
tracer in Seminal gland (6 h): 0.54 percentage of the dose injected per gram of tissue
tracer in Seminal gland (16 h): 0.64 percentage of the dose injected per gram of tissue
tracer in Seminal gland (24 h): 0.35 percentage of the dose injected per gram of tissue
tracer in Seminal gland (48 h): 0.35 percentage of the dose injected per gram of tissue
tracer in Seminal gland (72 h): 0.58 percentage of the dose injected per gram of tissue
tracer in Seminal glands (Seminal glands, 2 h): 0.79 percentage of the dose injected per gram of tissue
tracer in Spleen (2 h): 7.15 percentage of the dose injected per gram of tissue
tracer in Spleen (4 h): 5.31 percentage of the dose injected per gram of tissue
tracer in Spleen (6 h): 6.453 percentage of the dose injected per gram of tissue
tracer in Spleen (16 h): 9.19 percentage of the dose injected per gram of tissue
tracer in Spleen (24 h): 6.65 percentage of the dose injected per gram of tissue
tracer in Spleen (48 h): 11.18 percentage of the dose injected per gram of tissue
tracer in Spleen (72 h): 6.40 percentage of the dose injected per gram of tissue
tracer in Testicle (2 h): 1.36 percentage of the dose injected per gram of tissue
tracer in Testicle (4 h): 1.35 percentage of the dose injected per gram of tissue
tracer in Testicle (6 h): 2.000 percentage of the dose injected per gram of tissue
tracer in Testicle (16 h): 2.95 percentage of the dose injected per gram of tissue
tracer in Testicle (48 h): 2.97 percentage of the dose injected per gram of tissue
tracer in Testicle (72 h): 4.34 percentage of the dose injected per gram of tissue
